Reference: US8530457B2, “Method for the treatment of lymphangioleiomyomatosis (LAM)” (Fox Chase Cancer Center, priority 2008, dated 2013)
“Also recorded” adds a separate entry of the source.

Experiments:
p42/44 MAPK [1] = assay: Immunoblot of phosphorylated p42/44 MAPK in ELT3 cells; assay type: cell-based, rat
Procedure: Prior to the in vitro experiments, cells were maintained in media supplemented with 10%-charcoal-stripped FBS for three days and then serum starved for 24 hours in serum-free and phenol red-free medium. E2 (10 nM, Sigma, St. Louis, Mo.) or PD98059 (50 μM, Cell Signaling Technology, Danvers, Mass.) was added to the cells as indicated.
(§1) Cells were rinsed once in ice-cold PBS and lysed in PTY buffer (50 mM Hepes, pH 7.5, 50 mM NaCl, 5 mM EDTA, 50 mM NaF, 10 mM Na4P2O7, and 1% Triton 100) supplemented with phosphatase inhibitors. Lysates were resolved by SDS-PAGE electrophoresis and transferred onto Immobilon P membranes (Millipore). Cytoplasmic and nuclear fractions were separated using CellLytic Nuclear Extraction Kit (Sigma) before electrophoresis. […] Western blots were developed using horseradish peroxidase-conjugated secondary antibodies and ECL chemiluminescence (Amersham Biosciences).

p42/44 MAPK [2] = assay: Phospho-p42/44 MAPK immunostaining of primary xenograft tumors; assay type: in vivo, mice; settings: placebo 28%
Procedure: Sections were deparaffinized, incubated overnight with primary antibodies at 4° C. in a humidified chamber and then rinsed and incubated with biotinylated secondary antibodies for 30 minutes at room temperature. Slides were developed using the Broad Spectrum AEC Histostain-Plus (Invitrogen) or Histostain-Plus kit (Invitrogen), and they were counterstained with Gill's hematoxylin.
(§2) All animal work was performed in accordance with a protocol approved by the FCCC Institutional Animal Care and Use Committee. Male CB-17 scid mice, six weeks of age, were purchased from Fox Chase Cancer Center. Female ovariectomized CB17-scid mice, six to eight weeks of age, were purchased from Taconic (Hudson, N.Y.). One week prior to cell injection, 17-beta estradiol or control-placebo pellets (2.5 mg, 90-day release) (Innovative Research America, Sarasota, Fla.) were implanted. For xenograft tumor establishment, subconfluent ELT3 cells were harvested, washed in PBS, and resuspended in 0.2 ml of serum-free medium. Two millions ELT3 cells were injected into both flanks of the mouse subcutaneously. For metastatic and circulating tumor cells assays, 2×10^5 ELT3 or ELT3-Luc cells were resuspended in 0.1 ml PBS and injected into the lateral tail vein of mice. Lung metastases were scored from 3-5 five-micron H&E stained sections of each lobe at 40× magnification by observers blinded to the experimental conditions.

ELT3 cells [3] = assay: Circulating and lung tumor cell DNA by rat-specific real-time PCR; assay type: in vivo, mice
Procedure: as §2, with “For metastatic and circulating tumor cells assays, 2×10^5 ELT3 or ELT3-Luc cells were resuspended in 0.1 ml PBS and injected into the lateral tail vein of mice.” left out
Mouse blood (0.5 mL) was collected at indicated times by intraocular bleed, and red blood cells were lysed before DNA extraction. At death, the lungs were dissected and stored at −80° C. for DNA extraction. Rat and mouse DNAs were quantified by using TaqMan-chemistry based real-time PCR assays. […] The primers amplify a LINE repeat element (AC087102). The assay for mouse is for the gene Anf. The sequences (all 5′ to 3′) for the primers and probes are:
PCR master mix from Eurogentec was used for PCR. Primers and probe concentrations were 500 and 100 nM, respectively. Cycling conditions were 95° C., 15 minutes followed by 40 (2-steps) cycles (95° C., 15 sec; 60° C., 60 sec). Reactions were run using an ABI 7900 HT instrument. Each sample was analyzed using two different amounts of input DNA. […] Bioluminescent Reporter Imaging

ELT3-luciferase cells = assay: Lung colonization of i.v. injected ELT3-luciferase cells, bioluminescent imaging; assay type: in vivo, mice
Procedure: as §2, with “For metastatic and circulating tumor cells assays, 2×10^5 ELT3 or ELT3-Luc cells were resuspended in 0.1 ml PBS and injected into the lateral tail vein of mice.” left out
One million ELT3 cells were transfected with 3 μg of pCMV-Luc (Invitrogen, Carlsbad, Calif.) using Nucleofection reagent (Amaxa, Gaithersburg, Md.). Cells were selected in G418 for 2 weeks, and G418 resistant clones were isolated and examined for luciferase activity.
Ten minutes prior to imaging, animals were injected with luciferin (Xenogen, Alameda, Calif.) (120 mg/kg, i.p.). Bioluminescent signals were recorded at indicated times post cell injection using Xenogen IVIS System (Xenogen). Total photon flux at the chest regions and from the dissected lungs was analyzed.

ELT3 cells [4] = assay: Anoikis assay of ELT3 cells on PolyHEMA (caspase-3, DNA fragmentation, Bim, regrowth); assay type: cell-based, rat
Procedure: as §1
ELT3 cells were cultured with or without 10 nM E2 in serum-free and phenol red-free medium supplemented with 10% charcoal-stripped FBS for 24 hours. […] Cell death as a function of DNA fragmentation was detected using Cell Death Detection ELISA kit (Roche Diagnostics).
(§3) The surviving cells in suspension were plated in triplicate in 24-well plates and allowed to grow adherently for 24 hours. ^3H-thymidine (1 μCi) was added to the media and the cells were incubated at 37° C. for 6 hours, washed with PBS, and lysed in 0.5 mL of 0.5 N NaOH plus 0.5% SDS. ^3H-thymidine incorporation was measured by scintillation counting.

C-Raf = assay: Immunoblot of phosphorylated C-Raf/Raf-1 in ELT3 cells; assay type: cell-based, rat; settings: E2 stimulation
Procedure: (§4) ELT-3 cells (Eker rat uterine leiomyoma-derived smooth muscle cells) were cultured in IIA complete medium (DMEM/F12 basal media including 15% FBS, 0.2 μM hydrocortisone, 10 μU/mL vasopressin, 1×FeSO4, 10 ng/mL EGF, 1×ITS, 0.01 nM triiolythryonine, 0.12% sodium bicarbonate, 1× cholesterol and 1× penicillin/streptomycin) supplemented with 15% FBS. Prior to the in vitro experiments, cells were maintained in media supplemented with 10%-charcoal-stripped FBS for three days and then serum starved for 24 hours in serum-free and phenol red-free medium. E2 (10 nM, Sigma, St. Louis, Mo.) or PD98059 (50 μM, Cell Signaling Technology, Danvers, Mass.) was added to the cells as indicated.
(§5) Cells were rinsed once in ice-cold PBS and lysed in PTY buffer (50 mM Hepes, pH 7.5, 50 mM NaCl, 5 mM EDTA, 50 mM NaF, 10 mM Na4P2O7, and 1% Triton 100) supplemented with phosphatase inhibitors. Lysates were resolved by SDS-PAGE electrophoresis and transferred onto Immobilon P membranes (Millipore). Cytoplasmic and nuclear fractions were separated using CellLytic Nuclear Extraction Kit (Sigma) before electrophoresis. […]

ELT3 cells [5] = assay: ELT3 cell proliferation in response to E2, 3H-thymidine incorporation; assay type: cell-based, rat; settings: day 5, E2 treatment vs control
Procedure: as §4
as §3, with “counting. […]” for “counting.”

[6] = system: tuberin-deficient ELT3 cells; assay: Subcutaneous ELT3 xenograft in CB17-scid mice: primary tumors and pulmonary metastases; assay type: in vivo
Procedure: as §2
CI-1040 (PD184352) was obtained from Pfizer (Ann Arbor, Mich.) and was prepared in a vehicle of 10% Cremophore EL (Sigma), 10% ethanol and 80% water. RAD001 was obtained from Novartis Pharma AG (Basel, Switzerland) and was diluted in double-distilled water. Drug were administered one day post cell inoculation at the following doses: RAD001 (4 mg/kg/day, gavage); CI-1040, (150 mg/kg/day gavage, twice a day)
Subcutaneous tumors were removed from animals upon sacrifice. Tumor weights were recorded, and tumor size was measured in two dimensions with calipers.
ELT3 cells were inoculated subcutaneously into the flanks of ovariectomized CB17-SCID mice, which were supplemented 1 week before with either placebo or E2 pellets (2.5 mg, 90-day release). Tumors arose in 100% of both estrogen and placebo-treated mice. […] The proliferative potential of ELT3 cells in vivo was examined using Ki-67 immunoreactivity.

ribosomal protein S6 = assay: Immunoblot of phosphorylated ribosomal protein S6 in ELT3 cells; assay type: cell-based, rat; settings: E2 stimulation
Procedure: as §4, §5

[7] = female mice, subset n=4 with primary tumors of similar size
[8] = RAD001 4 mg/kg/day by gavage, 5 days per week, in the presence of estrogen or placebo

17β-estriadiol [E2]
time to induced phosphorylation of p42/44 MAPK (p42/44 MAPK [1]; 10 nM E2): ≤ 15 min
time to nuclear translocation of phospho-MAPK (p42/44 MAPK [1]; nuclear and cytoplasmic fractions): ≤ 5 min
percentage of cells with primarily nuclear phospho-MAPK (p42/44 MAPK [2]): 65%
increase in circulating cells (ELT3 cells [3]; 6 h after i.v. injection of 2×10^5 ELT3 cells, vs placebo): 2.5 fold
increase in lung seeding of ELT3 cells (ELT3 cells [3]; lungs 24 h after i.v. injection, vs placebo): 2 fold
amount of circulating tumor cell DNA vs placebo (ELT3 cells [3]; xenograft mice, 7 weeks post-cell inoculation, tumors of similar size): striking increase
bioluminescence in chest regions, higher than placebo (ELT3-luciferase cells; 3 h post-cell injection): 2 fold
bioluminescence in chest regions, higher than placebo (ELT3-luciferase cells; 24 h post-cell injection): 5 fold
DNA fragmentation (ELT3 cells [4]; 10 nM E2, PolyHEMA, at 1 and 24 h, ELISA): significantly reduced
caspase-3 cleavage (ELT3 cells [4]; 10 nM E2, PolyHEMA, at 6, 16 and 24 h): reduced
3H-thymidine incorporation after replating (ELT3 cells [4]; 24 h on PolyHEMA, 24 h after replating on adherent plates): significant increase
accumulation of Bim (ELT3 cells [4]; after 1 h in detachment conditions): decreased
phosphorylation of S6K and S6 (ELT3 cells [4]; detachment conditions, E2 stimulation): did not change
time to increased phosphorylation of C-Raf at Ser-338 (C-Raf): ≤ 2 min
increase in 3H-thymidine incorporation (ELT3 cells [5]): 2.8 fold
average number of pulmonary metastases, size-matched subset [6, 7]: 6 metastases/mouse
mice that developed pulmonary metastases, size-matched subset [6, 7]: Three
primary tumor size, size-matched subset [6, 7]: 198±20 mm^2
tumor size relative to placebo-treated animals ([6]; male mice, 8 weeks post-cell inoculation): 2.9 fold
average number of pulmonary metastases ([6]; male mice, 8 weeks post-inoculation): 14 metastases/mouse
mice with pulmonary metastases ([6]; male mice, 8 weeks post-inoculation, 10 of 10): 100%
mice in which tumors arose ([6]; ovariectomized female CB17-SCID mice, E2 pellets 2.5 mg 90-day release): 100%
average number of pulmonary metastases ([6]; ovariectomized female mice): 15 metastases/mouse
mice with pulmonary metastases ([6]; ovariectomized female mice, 5 of 9): 56%
mean tumor area ([6]; ovariectomized female mice, post-inoculation week 8): 287±43 mm^2
number of Ki-67 positive cells in tumors, higher than placebo ([6]; xenograft tumors, female mice, vs placebo-treated tumors): 17%
mTOR activation as measured by ribosomal protein S6 phosphorylation (ribosomal protein S6): does not affect

O=C(NOCC1CC1)c1ccc(F)c(F)c1Nc1ccc(I)cc1Cl [CI-1040, 2-(2-chloro-4-iodo-phenylamino)-N-cyclopropylmethoxy-3,4-difluoro-benzamide]
reduction of levels of circulating ELT3 cells in the blood (ELT3 cells [3]; E2-treated xenograft animals, CI-1040 150 mg/kg/day by gavage): 84%
decrease of bioluminescence in chest regions, E2 plus CI-1040 vs E2 (ELT3-luciferase cells; 5 h post-cell injection): 55%
reduction of bioluminescent signals in ex vivo lungs, E2 plus CI-1040 vs E2 (ELT3-luciferase cells; 60 h post-cell injection): 96%
tumor formation ([6]; CI-1040 150 mg/kg/day by gavage, twice a day, not statistically significant): delayed
reduction of the size of primary tumors ([6]; E2 animals, CI-1040 150 mg/kg/day by gavage, not statistically significant): 25%
lung metastases ([6]; mice treated with E2 plus CI-1040 150 mg/kg/day by gavage, 150 mg/kg/day): no lung metastases were detected; also recorded: completely blocked

COc1cccc(-c2cc(=O)c3ccccc3o2)c1N [PD98059]
E2-induced phosphorylation of p42/44 MAPK (p42/44 MAPK [1]; pretreatment with PD98059 (50 μM)): blocked
phosphorylation of S6K (ELT3 cells [4]; 1 h after detachment): decreased
E2-enhanced survival (3H-thymidine incorporation after replating) (ELT3 cells [4]; 24 h on PolyHEMA then replated, PD98059 treatment): blocked
estrogen's inhibition of Bim accumulation and caspase-3 cleavage (ELT3 cells [4]; preincubation, after 4 h in detachment conditions): partially blocked

CO[C@H]1C[C@@H]2CC[C@@H](C)[C@@](O)(O2)C(=O)C(=O)N2CCCC[C@H]2C(=O)O[C@H]([C@H](C)C[C@@H]2CC[C@@H](OCCO)[C@H](OC)C2)CC(=O)[C@H](C)/C=C(\C)[C@@H](O)[C@@H](OC)C(=O)[C@H](C)C[C@H](C)/C=C/C=C/C=C/1C [RAD001]
lung metastasis [6, 8]: completely blocked
primary tumor development [6, 8]: completely blocked
